Experiments:
A549 = assay: cells; details: Homo sapiens, A549, 48 h
Description: Antiproliferative activity against human A549 cells assessed as reduction in cell viability incubated for 48 hrs by MTS assay

HCT-116 = assay: Antiproliferative activity against human HCT-116 cells assessed as reduction in cell viability incubated for 48 hrs by MTS assay; type: functional, cell-based; details: HCT-116, 48 h
HL-60 = assay: Antiproliferative activity against human HL-60 cells assessed as reduction in cell viability incubated for 48 hrs by MTS assay; type: functional, cell-based; details: HL-60, 48 h
HeLa [1] = assay: Antiproliferative activity against human HeLa cells assessed as reduction in cell viability incubated for 48 hrs by MTS assay; type: functional, cell-based
[2] = Metabolic stability in rat liver microsomes assessed as intrinsic clearance incubated for 5 mins in presence of NADPH by HPLC analysis; type: ADME, Microsome; details: read-out: CLH
HeLa [3] = assay: Induction of mitochondrial membrane potential alteration in human HeLa cells assessed as early apoptotic cells at 10 nM measured after 48 hrs by JC1 staining-based flow cytometry analysis (reference value: 9.07 %); type: functional
HeLa [4] = assay: Induction of mitochondrial membrane potential alteration in human HeLa cells assessed as late apoptotic cells at 10 nM measured after 48 hrs by JC1 staining-based flow cytometry analysis (reference value: 0.009%); type: functional
HeLa [5] = assay: Induction of apoptosis in human HeLa cells assessed as viable cells at 10 nM incubated for 72 hrs by annexin V FITC and propidium iodide staining based flow cytometry analysis (reference value: 90.1%); type: functional; details: read-out: Activity
HeLa [6] = assay: Induction of mitochondrial membrane potential alteration in human HeLa cells assessed as viable cells at 10 nM measured after 48 hrs by JC1 staining-based flow cytometry analysis (reference value: 90.9%); type: functional; details: read-out: Activity
HeLa [7] = assay: Induction of apoptosis in human HeLa cells assessed as necrotic cells at 10 nM incubated for 48 hrs by annexin V FITC and propidium iodide staining based flow cytometry analysis (reference value: 1.85 %); type: functional
HeLa [8] = assay: Induction of apoptosis in human HeLa cells assessed as late apoptotic cells at 10 nM incubated for 72 hrs by annexin V FITC and propidium iodide staining based flow cytometry analysis (reference value: 4.70%); type: functional
HeLa [9] = assay: Induction of apoptosis in human HeLa cells assessed as necrotic cells at 10 nM incubated for 72 hrs by annexin V FITC and propidium iodide staining based flow cytometry analysis (reference value: 2.88 %); type: functional
HeLa [10] = assay: Induction of apoptosis in human HeLa cells assessed as early apoptotic cells at 10 nM incubated for 24 hrs by annexin V FITC and propidium iodide staining based flow cytometry analysis (reference value: 0.12%); type: functional
HeLa [11] = assay: Induction of apoptosis in human HeLa cells assessed as viable cells at 10 nM incubated for 24 hrs by annexin V FITC and propidium iodide staining based flow cytometry analysis (reference value: 85.7%); type: functional; details: read-out: Activity
HeLa [12] = assay: Induction of apoptosis in human HeLa cells assessed as necrotic cells at 10 nM incubated for 24 hrs by annexin V FITC and propidium iodide staining based flow cytometry analysis (reference value: 1.14 %); type: functional
HeLa [13] = assay: Induction of apoptosis in human HeLa cells assessed as early apoptotic cells at 10 nM incubated for 72 hrs by annexin V FITC and propidium iodide staining based flow cytometry analysis (reference value: 2.36%); type: functional
HeLa [14] = assay: Induction of apoptosis in human HeLa cells assessed as late apoptotic cells at 10 nM incubated for 24 hrs by annexin V FITC and propidium iodide staining based flow cytometry analysis (reference value: 0.05%); type: functional
HeLa [15] = assay: Induction of apoptosis in human HeLa cells assessed as late apoptotic cells at 10 nM incubated for 48 hrs by annexin V FITC and propidium iodide staining based flow cytometry analysis (reference value: 8.87%); type: functional
HeLa [16] = assay: Induction of mitochondrial membrane potential alteration in human HeLa cells assessed as necrotic cells at 10 nM measured after 48 hrs by JC1 staining-based flow cytometry analysis (reference value: 0%); type: functional
HeLa [17] = assay: Induction of apoptosis in human HeLa cells assessed as early apoptotic cells at 10 nM incubated for 48 hrs by annexin V FITC and propidium iodide staining based flow cytometry analysis (reference value: 6.01%); type: functional
HeLa [18] = assay: Induction of apoptosis in human HeLa cells assessed as viable cells at 10 nM incubated for 48 hrs by annexin V FITC and propidium iodide staining based flow cytometry analysis (reference value: 85.5%); type: functional; details: read-out: Activity
[19] = Resistance index, ratio of IC50 for antiproliferative activity against human A549/PTX cells assessed as reduction in cell viability to IC50 for antiproliferative activity against human A549 cells assessed as reduction in cell viability; type: functional
[20] = Antiproliferative activity against human A549/PTX cells assessed as reduction in cell viability measured for 48 hrs by MTS assay; type: functional, cell-based

IC50 (A549) | IC50 (HCT-116) | IC50 (HL-60) | IC50 (HeLa [1]) | Structure (SMILES) | other results
> 10000 nM | > 10000 nM | 9570 nM | > 10000 nM | COc1cccc(C(=O)c2nc(N3CCCC3)nc3ccsc23)c1 | –
> 10000 nM | > 10000 nM | 7090 nM | > 10000 nM | CCOc1nc(C(=O)c2cc(OC)c(OC)c(OC)c2)c2sccc2n1 | –
452 nM | 1740 nM | 122 nM | 194 nM | COc1cc(C(=O)c2nc(N3CCCC3)nc3cc(C)sc23)cc(OC)c1OC | –
> 10000 nM | > 10000 nM | > 10000 nM | > 10000 nM | COc1cc(C(=O)c2nc(N3CCS(=O)(=O)CC3)nc3ccsc23)cc(OC)c1OC | –
> 10000 nM | > 10000 nM | 285 nM | > 10000 nM | COc1cc(C(=O)c2nc(SC)nc3ccsc23)cc(OC)c1OC | –
> 10000 nM | > 10000 nM | 1120 nM | 1200 nM | COc1cc(C(=O)c2nc(N3CCCCC3)nc3ccsc23)cc(OC)c1OC | –
> 10000 nM | > 10000 nM | 8050 nM | > 10000 nM | COc1cc(C(=O)c2nc(NC3CCOCC3)nc3ccsc23)cc(OC)c1OC | –
> 10000 nM | > 10000 nM | > 10000 nM | > 10000 nM | COc1cc(C(=O)c2nc(N3CCN(C)CC3)nc3ccsc23)cc(OC)c1OC | –
2400 nM | 293 nM | 651 nM | 933 nM | COc1cc(C(=O)c2nc(NC3CCC3)nc3ccsc23)cc(OC)c1OC | –
> 10000 nM | > 10000 nM | > 10000 nM | > 10000 nM | COc1cc(C(=O)c2nc(N3CCSCC3)nc3ccsc23)cc(OC)c1OC | –
> 10000 nM | > 10000 nM | > 10000 nM | > 10000 nM | CCN(CC)c1nc(C(=O)c2cc(OC)c(OC)c(OC)c2)c2sccc2n1 | –
> 10000 nM | > 10000 nM | 2460 nM | > 10000 nM | COc1cc(C(=O)c2nc(NC3CCCCC3)nc3ccsc23)cc(OC)c1OC | –
4980 nM | 1400 nM | 3430 nM | 2200 nM | COc1cc(C(=O)c2nc(N3CCC(O)C3)nc3ccsc23)cc(OC)c1OC (configuration not stated) | –
> 10000 nM | > 10000 nM | 536 nM | 1220 nM | COc1cc(C(=O)c2nc(N(C)C)nc3ccsc23)cc(OC)c1OC | –
– | – | – | – | O=C(O)Cc1ccccc1Nc1c(Cl)cccc1Cl [DICLOFENAC] | microsomal CLint [2]: 64.2 µL/min/mg
954 nM | 225 nM | 889 nM | 1140 nM | COc1cc(C(=O)c2nc(Cl)nc3ccsc23)cc(OC)c1OC | –

IC50 (A549) | IC50 (HCT-116) | IC50 (HL-60) | IC50 (HeLa [1]) | Structure (SMILES) | other results
> 10000 nM | > 10000 nM | > 10000 nM | > 10000 nM | COc1cc(C(=O)c2nc(N3CCOCC3)nc3ccsc23)cc(OC)c1OC | –
1.1 nM | – | – | – | CC(=O)O[C@H]1C(=O)[C@@]2(C)[C@H]([C@H](OC(=O)c3ccccc3)[C@]3(O)C[C@H](OC(=O)[C@H](O)[C@@H](NC(=O)c4ccccc4)c4ccccc4)C(C)=C1C3(C)C)[C@]1(OC(C)=O)CO[C@@H]1C[C@@H]2O [PACLITAXEL] | Ratio IC50 [19]: 964; IC50 [20]: 1020 nM
> 10000 nM | > 10000 nM | > 10000 nM | > 10000 nM | COc1cc(C(=O)c2nc(N3CCNCC3)nc3ccsc23)cc(OC)c1OC | –
> 10000 nM | > 10000 nM | > 10000 nM | > 10000 nM | COc1cc(C(=O)c2nc(N(C)C3CCCCC3)nc3ccsc23)cc(OC)c1OC | –
> 10000 nM | > 10000 nM | > 10000 nM | > 10000 nM | COc1ccc(C(=O)c2nc(N3CCCC3)nc3ccsc23)cc1OC | –
> 10000 nM | > 10000 nM | > 10000 nM | > 10000 nM | COc1ccc(C(=O)c2nc(N3CCCC3)nc3ccsc23)cc1 | –
3140 nM | 278 nM | 486 nM | 758 nM | COc1cc(C(=O)c2nc(N3CCC3)nc3ccsc23)cc(OC)c1OC | –
– | 151 nM | – | 53 nM | COc1cc(C(=O)c2nc(Nc3cccc(C)c3)nc3ccsc23)cc(OC)c1OC | –
303 nM | 507 nM | 377 nM | 351 nM | COc1cc(C(=O)c2nc(N3CCC(F)(F)C3)nc3ccsc23)cc(OC)c1OC | –
147 nM | 309 nM | 174 nM | 37 nM | CCNc1nc(C(=O)c2cc(OC)c(OC)c(OC)c2)c2sccc2n1 | –
4340 nM | 616 nM | 934 nM | 4380 nM | COc1cc(OC)cc(C(=O)c2nc(N3CCCC3)nc3ccsc23)c1 | –
101 nM | 26 nM | 93 nM | 22 nM | COc1cc(C(=O)c2nc(N3CC=CC3)nc3ccsc23)cc(OC)c1OC | –
> 10000 nM | > 10000 nM | 8400 nM | > 10000 nM | COc1cc(C(=O)c2nc(NC3CCCC3)nc3ccsc23)cc(OC)c1OC | –
> 10000 nM | > 10000 nM | > 10000 nM | > 10000 nM | COc1cc(C(=O)c2nc(C3CCCC3)nc3ccsc23)cc(OC)c1OC | –
45 nM | 114 nM | 32 nM | 58 nM | CNc1nc(C(=O)c2cc(OC)c(OC)c(OC)c2)c2sccc2n1 | –
965 nM | 329 nM | 224 nM | 263 nM | COc1nc(C(=O)c2cc(OC)c(OC)c(OC)c2)c2sccc2n1 | –

Structure (SMILES) | IC50 (A549) | IC50 (HCT-116) | IC50 (HL-60) | IC50 (HeLa [1]) | other results
COc1ccc(/C=C\c2cc(OC)c(OC)c(OC)c2)cc1O [COMBRETASTATIN A4] | 7.5 nM | 1.1 nM | 1.3 nM | 1.4 nM | Activity (HeLa [3]): 18%; Activity (HeLa [4]): 0%; viability at 0.01 µM (HeLa [5]): 25.1%; viability at 0.01 µM (HeLa [6]): 82%; Activity (HeLa [7]): 11.2%; Activity (HeLa [8]): 31.8%; Activity (HeLa [9]): 23.3%; Activity (HeLa [10]): 7.41%; viability at 0.01 µM (HeLa [11]): 79.4%; Activity (HeLa [12]): 8.87%; Activity (HeLa [13]): 17%; Activity (HeLa [14]): 7.5%; Activity (HeLa [15]): 51.9%; Activity (HeLa [16]): 0.011%; Activity (HeLa [17]): 20.1%; viability at 0.01 µM (HeLa [18]): 16.9%
